The results in this text go back to ChEMBL document CHEMBL1201862, “PubChem BioAssay data set” (2004).

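How tested: cells in 96-well plates exposed to compound for 48 hours at five concentrations. GI50 = concentration required for 50% inhibition of growth.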 The source made the active and inactive calls. Rule as the data show it: active = GI50 up to about 1.1 µM and inactive = higher. A value given as a limit tells only on which side of the number the result lay.

Some test systems named below: UO-31; CAKI-1; OVCAR-5; NCI/ADR-RES; RXF 393; MDA-MB-231; MDA-N; Malme-3M; SN12C; MDA-MB-435; SK-MEL-5; PC-3; HT-29; SR; UACC-257; SF-539; NCI-H226; SK-OV-3; OVCAR-4; 786-0.
Common to all, as to assay: inhibition of tumour cell growth, NCI panel, 48 h

`CC12CCC(=O)C=C1CCC1C2C(O)CC2(C)C(c3csc(N)n3)CCC12.O=S(=O)(O)c1ccc(Br)cc1` (stereo not given): the GI50 in the assay with UO-31, with CAKI-1, with OVCAR-5, with NCI/ADR-RES, with RXF 393 and in the assay with MDA-MB-231 was > 100 µM (inactive) each time. Moreover, the GI50 with MDA-N, with Malme-3M, in the assay on SN12C, with MDA-MB-435, with SK-MEL-5 and in the assay on PC-3 was > 100 µM (inactive) throughout. Further, the GI50 with HT-29, with SR, in the assay with UACC-257, in the assay with SF-539, in the assay on NCI-H226 and in the assay on SK-OV-3 was > 100 µM (inactive) each time. The GI50 in the assay on OVCAR-4 and with 786-0 was > 100 µM (inactive) throughout.
With `COc1ccc(-c2cc(-c3ccc(Nc4ccnc5cc(C(F)(F)F)ccc45)cc3)[nH]c(=O)c2C#N)c2ccccc12`, the GI50 in the assay with UO-31 was > 35.6 µM (inactive); with CAKI-1 it was > 100 µM (inactive); with OVCAR-5, > 61.2 µM (inactive); with NCI/ADR-RES, > 100 µM (inactive); in the assay on RXF 393, 15.2 µM (inactive); in the assay with MDA-MB-231 it was 17.7 µM (inactive). Further, the GI50 in the assay with MDA-N was > 38.4 µM (inactive); with Malme-3M it was > 41.2 µM (inactive); in the assay on SN12C, > 100 µM (inactive); in the assay on MDA-MB-435 it was > 33.7 µM (inactive); in the assay with SK-MEL-5, > 100 µM (inactive); with PC-3 it was > 100 µM (inactive). Also, the GI50 was > 25.7 µM (inactive) in the assay with HT-29; 12.6 µM (inactive) in the assay on SR; > 100 µM (inactive) in the assay on UACC-257; 16.6 µM (inactive) in the assay on SF-539; > 55.3 µM (inactive) with NCI-H226; 10.2 µM (inactive) in the assay with SK-OV-3. For the same molecule, the GI50 in the assay on OVCAR-4 was > 46 µM (inactive); in the assay on 786-0, 21 µM (inactive).
Turning to `O=S1(=O)c2ccccc2C(Nc2ccccc2)N1c1ccccc1` (stereo not given), the GI50 in the assay on UO-31 was 68.1 µM (inactive); with CAKI-1, > 100 µM (inactive); in the assay with OVCAR-5, > 100 µM (inactive); with NCI/ADR-RES, 45 µM (inactive); with RXF 393, > 100 µM (inactive); with MDA-MB-231 it was > 100 µM (inactive). In addition, the GI50 in the assay with MDA-N was > 100 µM (inactive); in the assay on Malme-3M it was > 100 µM (inactive); in the assay with SN12C, > 100 µM (inactive); in the assay on MDA-MB-435, 45.1 µM (inactive); with SK-MEL-5, > 100 µM (inactive); with PC-3, > 100 µM (inactive). For the same molecule, the GI50 in the assay on HT-29 is > 100 µM (inactive); with SR it was 83.8 µM (inactive); in the assay with UACC-257 it was > 100 µM (inactive); in the assay on SF-539, > 100 µM (inactive); in the assay on NCI-H226, > 100 µM (inactive); in the assay with SK-OV-3, > 100 µM (inactive). In addition, the GI50 with OVCAR-4 is 67.6 µM (inactive); in the assay on 786-0, > 100 µM (inactive).
As for `CCc1nnc(S)n1/N=C\c1ccc(-c2ccccc2[N+](=O)[O-])o1`, the GI50 in the assay with UO-31 was 41.5 µM (inactive); in the assay on CAKI-1, 51.4 µM (inactive); in the assay on OVCAR-5, 50.7 µM (inactive); in the assay on NCI/ADR-RES it was 26.3 µM (inactive); in the assay on RXF 393, 63.5 µM (inactive); in the assay with MDA-MB-231 it was 47.2 µM (inactive). Moreover, the GI50 in the assay with MDA-N is 17.6 µM (inactive); with Malme-3M, 85.5 µM (inactive); with SN12C it was 47.3 µM (inactive); in the assay on MDA-MB-435, 15.4 µM (inactive); with SK-MEL-5, 12 µM (inactive); in the assay on PC-3 it was 41.5 µM (inactive). Besides, the GI50 with HT-29 was 35.7 µM (inactive); with SR, 16.9 µM (inactive); in the assay on UACC-257 it was 76.4 µM (inactive); in the assay with SF-539 it was 29.8 µM (inactive); with NCI-H226 it was 12.1 µM (inactive); in the assay on SK-OV-3, 36.1 µM (inactive). Further, the GI50 with OVCAR-4 is 44.8 µM (inactive); in the assay with 786-0, 45.6 µM (inactive).
Regarding `C=C1CC(OC(C)=O)/C=C(/C)CCC(C(C)(C)O)CC1O` (stereo not given), the GI50 in the assay on UO-31, in the assay with CAKI-1, in the assay with OVCAR-5, in the assay on NCI/ADR-RES, in the assay on RXF 393 and with MDA-MB-231 was > 100 µM (inactive) in each case. Moreover, the GI50 in the assay on MDA-N, in the assay on Malme-3M, with SN12C, in the assay on MDA-MB-435, with SK-MEL-5 and with PC-3 was > 100 µM (inactive) in each case. For the same molecule, the GI50 in the assay with HT-29, with SR, with UACC-257, in the assay on SF-539, with NCI-H226 and in the assay with SK-OV-3 was > 100 µM (inactive) each time. The GI50 with OVCAR-4 and with 786-0 was > 100 µM (inactive) throughout.
`COn1cc(C=O)c2ccccc21`: the GI50 is 61.2 µM (inactive) in the assay on UO-31; 28.7 µM (inactive) in the assay on CAKI-1; > 74.6 µM (inactive) in the assay with OVCAR-5; > 70.8 µM (inactive) in the assay with NCI/ADR-RES; 45.9 µM (inactive) in the assay on RXF 393; > 100 µM (inactive) with MDA-MB-231. Further, the GI50 in the assay on MDA-N was 23.6 µM (inactive); with Malme-3M, > 93.8 µM (inactive); with SN12C it was > 80.4 µM (inactive); in the assay on MDA-MB-435, 10.8 µM (inactive); with SK-MEL-5 it was 28.1 µM (inactive); in the assay with PC-3, > 74.1 µM (inactive). The GI50 with HT-29 was > 56.6 µM (inactive); in the assay with SR it was 26.4 µM (inactive); in the assay with UACC-257 it was > 78.9 µM (inactive); with SF-539, > 45.6 µM (inactive); in the assay with NCI-H226, > 20.2 µM (inactive); with SK-OV-3 it was 67 µM (inactive). For the same molecule, the GI50 was > 50.5 µM (inactive) in the assay on OVCAR-4 and > 67 µM (inactive) in the assay with 786-0.
For the molecule `CC(=O)O[C@@]12[C@@H]3O[C@@]4(O)C[C@]5(C)[C@H]6C[C@@](C(C)C)(O[C@H]5c5ccoc5)O[C@H]1[C@]6(C4)O[C@]2(O)C(C)=CC3(C)C`, the GI50 with UO-31, in the assay with CAKI-1, in the assay with OVCAR-5, with NCI/ADR-RES, in the assay with RXF 393 and in the assay with MDA-MB-231 was > 100 µM (inactive) each time. Moreover, the GI50 in the assay on MDA-N, with Malme-3M, in the assay on SN12C, in the assay on MDA-MB-435, in the assay on SK-MEL-5 and with PC-3 was > 100 µM (inactive) each time. Further, the GI50 in the assay on HT-29, in the assay on SR, in the assay with UACC-257, in the assay on SF-539, in the assay with NCI-H226 and in the assay with SK-OV-3 was > 100 µM (inactive) each time. Besides, the figures for the GI50 in the assay with OVCAR-4 and with 786-0 were > 100 µM (inactive) and 64.4 µM (inactive), respectively.
For `OCC1OC(n2cnc3c(/C=C(/O)c4ccccc4)ncnc32)C(O)C1O` (stereo not given), the GI50 in the assay on UO-31 was 0.92 µM (active); with CAKI-1 it was 3.11 µM (inactive); in the assay with OVCAR-5 it was 3.98 µM (inactive); with NCI/ADR-RES it was 2.11 µM (inactive); in the assay on RXF 393 it was 4.12 µM (inactive); in the assay on MDA-MB-231 it was 1.64 µM (inactive). The GI50 in the assay with MDA-N was 4.89 µM (inactive); in the assay with Malme-3M, 5.33 µM (inactive); in the assay on SN12C, 3.19 µM (inactive); in the assay with MDA-MB-435, 2.25 µM (inactive); in the assay with SK-MEL-5 it was 5.65 µM (inactive); in the assay with PC-3, 4.04 µM (inactive). Besides, the GI50 in the assay on HT-29 is 3.1 µM (inactive); with SR, 1.35 µM (inactive); in the assay with UACC-257 it was 3.89 µM (inactive); with SF-539 it was 4.93 µM (inactive); with NCI-H226, 5.38 µM (inactive); in the assay with SK-OV-3, 0.428 µM (active). Also, the GI50 in the assay on OVCAR-4 was 2.84 µM (inactive); in the assay with 786-0, 2.94 µM (inactive).
With `O=C(O)C1C2CC3C(OC(=O)C31)C2Br` (stereo not given), the GI50 with UO-31, with CAKI-1, with OVCAR-5, in the assay with NCI/ADR-RES, with RXF 393 and in the assay on MDA-MB-231 was > 100 µM (inactive) each time. Also, the GI50 in the assay on MDA-N, in the assay on Malme-3M, with SN12C, with MDA-MB-435, with SK-MEL-5 and in the assay with PC-3 was > 100 µM (inactive) each time. In addition, the GI50 is > 100 µM (inactive) in the assay with HT-29; 0.432 µM (active) with SR; > 100 µM (inactive) in the assay on UACC-257; > 100 µM (inactive) with SF-539; > 100 µM (inactive) in the assay with NCI-H226; > 100 µM (inactive) in the assay on SK-OV-3. Besides, the GI50 in the assay on OVCAR-4 and with 786-0 was > 100 µM (inactive) in each case.
On to `CC(C)C1=Cc2ccc3c(c2C(=O)C1=O)CCCC3`, for which the GI50 in the assay with UO-31 is 3.31 µM (inactive); with CAKI-1, 0.955 µM (active); in the assay with OVCAR-5, 13.9 µM (inactive); in the assay on NCI/ADR-RES, 21.4 µM (inactive); in the assay on RXF 393, 4.32 µM (inactive); with MDA-MB-231, 16 µM (inactive). The GI50 in the assay on MDA-N was 6.61 µM (inactive); in the assay on Malme-3M, 2.58 µM (inactive); with SN12C, 5.27 µM (inactive); in the assay with MDA-MB-435 it was 0.865 µM (active); with SK-MEL-5, 7.1 µM (inactive); in the assay with PC-3 it was 13.8 µM (inactive). For the same molecule, the GI50 in the assay with HT-29 was 9.06 µM (inactive); with SR, 0.515 µM (active); in the assay with UACC-257, 3.47 µM (inactive); in the assay on SF-539, 8.07 µM (inactive); in the assay on NCI-H226, 15 µM (inactive); in the assay on SK-OV-3, 2.92 µM (inactive). For the same molecule, the GI50 is 1.51 µM (inactive) in the assay on OVCAR-4 and 2.43 µM (inactive) in the assay on 786-0.
